From ChEMBL document CHEMBL1129083, “The synthesis of 5-azido-UTP and UDP-pyridoxal and their effect on the carbamoyl-phosphate synthetase (CPS II) in the mammalian multienzyme polypeptide CAD” (Bioorg Med Chem Lett, 1996) come the findings set out here.

Assay [1] concerns the target Multifunctional protein CAD (Homo sapiens) (UniProt P27708). The assay is described as follows: Compound was evaluated for its effect on the activity of mammalian Carbamoyl-phosphate synthetase in the multienzyme polypeptide CAD at a concentration of 1.2mM.
For assay [2] the target is unchanged. Description: Compound was evaluated for its effect on the activity of mammalian Carbamoyl-phosphate synthetase in the multienzyme polypeptide CAD at a concentration of 1.6mM.
For assay [3] the target is unchanged. Description: Compound was evaluated for its effect on the activity of mammalian Carbamoyl-phosphate synthetase in the multienzyme polypeptide CAD at a concentration of 0.4mM.
Assay [4] shares this target. Description: Compound was evaluated for its effect on the activity of mammalian Carbamoyl-phosphate synthetase in the multienzyme polypeptide CAD at a concentration of 1.2 mM.
The target is the same in assay [5]. Description: Compound was evaluated for its effect on the activity of mammalian Carbamoyl-phosphate synthetase in the multienzyme polypeptide CAD at a concentration of 4mM.

Sequence of Multifunctional protein CAD (Homo sapiens) (P27708 whole entry): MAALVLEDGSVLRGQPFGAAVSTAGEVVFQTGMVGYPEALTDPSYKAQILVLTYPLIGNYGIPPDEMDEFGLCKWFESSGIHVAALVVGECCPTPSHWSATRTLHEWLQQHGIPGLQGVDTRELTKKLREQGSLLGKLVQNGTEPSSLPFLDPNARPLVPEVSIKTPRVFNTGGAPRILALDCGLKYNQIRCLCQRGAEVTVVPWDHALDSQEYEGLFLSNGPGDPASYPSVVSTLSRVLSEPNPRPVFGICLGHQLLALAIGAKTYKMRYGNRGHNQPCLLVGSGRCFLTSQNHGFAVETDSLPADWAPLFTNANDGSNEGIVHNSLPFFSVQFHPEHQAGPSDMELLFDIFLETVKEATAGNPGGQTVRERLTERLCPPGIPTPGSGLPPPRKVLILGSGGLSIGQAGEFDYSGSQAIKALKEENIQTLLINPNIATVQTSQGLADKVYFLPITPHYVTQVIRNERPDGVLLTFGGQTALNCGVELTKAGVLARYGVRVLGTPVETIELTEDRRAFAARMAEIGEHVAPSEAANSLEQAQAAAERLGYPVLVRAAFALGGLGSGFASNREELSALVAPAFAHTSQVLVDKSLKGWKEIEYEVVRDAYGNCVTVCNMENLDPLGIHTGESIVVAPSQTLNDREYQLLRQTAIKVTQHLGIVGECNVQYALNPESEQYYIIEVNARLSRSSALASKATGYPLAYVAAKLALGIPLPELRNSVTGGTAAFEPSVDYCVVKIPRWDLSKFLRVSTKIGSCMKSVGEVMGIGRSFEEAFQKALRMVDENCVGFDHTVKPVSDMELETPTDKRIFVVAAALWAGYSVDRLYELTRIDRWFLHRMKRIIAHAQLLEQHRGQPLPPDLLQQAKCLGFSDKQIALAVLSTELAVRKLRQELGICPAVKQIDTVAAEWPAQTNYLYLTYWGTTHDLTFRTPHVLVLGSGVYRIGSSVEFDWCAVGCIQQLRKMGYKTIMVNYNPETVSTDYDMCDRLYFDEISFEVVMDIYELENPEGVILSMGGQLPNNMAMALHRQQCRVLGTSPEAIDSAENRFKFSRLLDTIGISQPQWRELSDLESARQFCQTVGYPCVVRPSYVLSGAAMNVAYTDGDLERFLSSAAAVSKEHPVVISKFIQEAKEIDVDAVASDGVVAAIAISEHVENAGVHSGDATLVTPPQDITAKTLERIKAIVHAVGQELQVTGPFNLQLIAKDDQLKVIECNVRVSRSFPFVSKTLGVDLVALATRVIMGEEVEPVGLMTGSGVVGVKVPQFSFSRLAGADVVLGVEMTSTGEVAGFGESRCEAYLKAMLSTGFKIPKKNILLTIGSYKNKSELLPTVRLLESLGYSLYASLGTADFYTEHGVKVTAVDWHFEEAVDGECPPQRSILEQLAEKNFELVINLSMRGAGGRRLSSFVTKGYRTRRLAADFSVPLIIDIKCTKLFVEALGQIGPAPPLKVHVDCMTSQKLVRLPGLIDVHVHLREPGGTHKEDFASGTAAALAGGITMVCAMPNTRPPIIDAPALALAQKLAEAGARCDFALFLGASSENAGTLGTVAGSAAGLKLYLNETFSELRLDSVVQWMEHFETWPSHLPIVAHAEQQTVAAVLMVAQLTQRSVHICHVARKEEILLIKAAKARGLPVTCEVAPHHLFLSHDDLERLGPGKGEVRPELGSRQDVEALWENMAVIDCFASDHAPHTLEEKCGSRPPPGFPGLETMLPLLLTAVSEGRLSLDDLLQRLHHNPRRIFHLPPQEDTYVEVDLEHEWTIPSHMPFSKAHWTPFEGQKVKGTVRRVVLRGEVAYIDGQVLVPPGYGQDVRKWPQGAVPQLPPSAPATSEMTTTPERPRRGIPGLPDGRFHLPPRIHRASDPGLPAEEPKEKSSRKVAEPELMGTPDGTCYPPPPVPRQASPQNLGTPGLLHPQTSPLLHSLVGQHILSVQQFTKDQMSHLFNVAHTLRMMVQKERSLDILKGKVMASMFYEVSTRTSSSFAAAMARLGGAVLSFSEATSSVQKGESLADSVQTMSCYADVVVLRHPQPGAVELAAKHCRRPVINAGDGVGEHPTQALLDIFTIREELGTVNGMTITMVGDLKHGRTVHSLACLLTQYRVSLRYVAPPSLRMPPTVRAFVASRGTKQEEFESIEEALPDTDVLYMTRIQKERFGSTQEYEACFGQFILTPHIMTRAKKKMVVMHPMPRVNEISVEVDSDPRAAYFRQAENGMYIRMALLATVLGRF

As to `O=c1ccn([C@@H]2O[C@H](COP(=O)(O)OP(=O)(O)O)[C@@H](O)[C@H]2O)c(=O)[nH]1`, the Activity in assay [1] was determined as 54%.

Regarding `O=c1ccn([C@@H]2O[C@H](CO)C(O)C2O)c(=O)[nH]1` (single isomer, unassigned), the Activity in assay [2] came out at 100%.

`O=P(O)(O)OC[C@H]1OC(OP(=O)(O)OP(=O)(O)O)[C@H](O)[C@@H]1O` (stereo not given in full) showed an Activity in assay [3] of 320%. Take `[N-]=[N+]=Nc1cn([C@@H]2O[C@H](COP(=O)(O)OP(=O)(O)OP(=O)(O)O)[C@@H](O)[C@H]2O)c(=O)[nH]c1=O`: the Activity in assay [4] is 48%.

Take `Nc1ncnc2c1ncn2[C@@H]1O[C@H](COP(=O)(O)OP(=O)(O)OP(=O)(O)O)[C@@H](O)[C@H]1O`: in assay [5], the Activity came to 100%. `Cc1ncc(CO)c(C=O)c1O` gave an Activity in assay [1] of 73%. `O=c1ccn([C@@H]2O[C@H](COP(=O)(O)OP(=O)(O)OP(=O)(O)O)[C@@H](O)[C@H]2O)c(=O)[nH]1`: the Activity in assay [1] came to 18%. The molecule `Cc1ncc(COP(=O)(O)O)c(C=O)c1O` yielded an Activity in assay [3] of 170%. Turning to `Cc1ncc(COP(=O)(O)OP(=O)(O)OC[C@H]2OC(n3ccc(=O)[nH]c3=O)[C@H](O)[C@@H]2O)c(C=O)c1O` (stereo not given in full), in assay [3], the Activity is 120%. As for `O=P(O)(O)OC[C@H]1O[C@H](O)C(O)C1O` (single isomer, unassigned), the Activity in assay [2] is 100%.
